ChEMBL document CHEMBL5335843, “Application of tobramycin benzyl ether as an antibiotic adjuvant capable of sensitizing multidrug-resistant Gram-negative bacteria to rifampicin” (2024)
Calls of active or inactive are those of the source. The rule behind the calls is not given here.

Columns and labels:
Pseudomonas aeruginosa [1] = experiment: Antibiotic adjuvant activity against multi-drug resistant Pseudomonas aeruginosa clinical isolate PA264 assessed as inhibition of bacterial growth incubated for 18 hrs in presence of Rifampicin by two fold broth microdilution checkerboard assay; format: functional
Pseudomonas aeruginosa [2] = experiment: Antibiotic adjuvant activity against multi-drug resistant Pseudomonas aeruginosa clinical isolate PA264 assessed as fractional inhibitory concentration index incubated for 18 hrs in presence of Rifampicin by two fold broth microdilution checkerboard assay; format: functional
Pseudomonas aeruginosa [3] = experiment: Antibiotic adjuvant activity against multi-drug resistant Pseudomonas aeruginosa clinical isolate PA264 assessed as fold potentiation incubated for 18 hrs in presence of minocycline by two fold broth microdilution checkerboard assay; format: functional
Escherichia coli [4] = experiment: Antibiotic adjuvant activity against Escherichia coli ATCC 25922 assessed as novobiocin MIC incubated for 18 hrs in presence of novobiocin by two fold broth microdilution checkerboard assay; format: functional
Pseudomonas aeruginosa [5] = experiment: Antibiotic adjuvant activity against multi-drug resistant Pseudomonas aeruginosa clinical isolate 101243 assessed as fractional inhibitory concentration index incubated for 18 hrs in presence of Rifampicin by two fold broth microdilution checkerboard assay; format: functional
Enterococcus faecium [6] = experiment: Antibacterial activity against Enterococcus faecium 114278 assessed as inhibition of bacterial growth incubated for 18 hrs by two fold broth microdilution assay; format: functional
Pseudomonas aeruginosa [7] = experiment: Antibiotic adjuvant activity against multi-drug resistant Pseudomonas aeruginosa clinical isolate PA264 assessed as inhibition of bacterial growth incubated for 18 hrs in presence of doxycycline by two fold broth microdilution checkerboard assay; format: functional
Pseudomonas aeruginosa [8] = experiment: Antibiotic adjuvant activity against multi-drug resistant Pseudomonas aeruginosa clinical isolate PA262 assessed as fractional inhibitory concentration index incubated for 18 hrs in presence of Rifampicin by two fold broth microdilution checkerboard assay; format: functional
Pseudomonas aeruginosa [9] = experiment: Antibiotic adjuvant activity against multi-drug resistant Pseudomonas aeruginosa clinical isolate PA264 assessed as doxycycline MIC incubated for 18 hrs in presence of doxycycline by two fold broth microdilution checkerboard assay; format: functional
Enterococcus faecium [10] = experiment: Antibiotic adjuvant activity against Enterococcus faecium 128149 assessed as fold potentiation incubated for 18 hrs in presence of rifampicin by two fold broth microdilution checkerboard assay; format: functional
Pseudomonas aeruginosa [11] = experiment: Antibacterial activity against Pseudomonas aeruginosa PAO1 assessed as inhibition of bacterial growth incubated for 18 hrs by two fold broth microdilution assay; format: functional
Pseudomonas aeruginosa [12] = experiment: Antibiotic adjuvant activity against multi-drug resistant Pseudomonas aeruginosa clinical isolate PA114228 assessed as fold potentiation incubated for 18 hrs in presence of minocycline by two fold broth microdilution checkerboard assay; format: functional
Pseudomonas aeruginosa [13] = experiment: Antibiotic adjuvant activity against Pseudomonas aeruginosa PAO1 assessed as fold potentiation incubated for 18 hrs in presence of rifampicin and CAMHB Mg2+ media by two fold broth microdilution checkerboard assay; format: functional
Pseudomonas aeruginosa [14] = experiment: Antibiotic adjuvant activity against multi-drug resistant Pseudomonas aeruginosa clinical isolate PA259 assessed as rifampicin MIC incubated for 18 hrs in presence of Rifampicin by two fold broth microdilution checkerboard assay; format: functional
Pseudomonas aeruginosa [15] = experiment: Antibiotic adjuvant activity against multi-drug resistant Pseudomonas aeruginosa clinical isolate PA114228 assessed as inhibition of bacterial growth incubated for 18 hrs in presence of doxycycline by two fold broth microdilution checkerboard assay; format: functional
Pseudomonas aeruginosa [16] = experiment: Antibiotic adjuvant activity against multi-drug resistant Pseudomonas aeruginosa clinical isolate PA114228 assessed as fold potentiation incubated for 18 hrs in presence of doxycycline by two fold broth microdilution checkerboard assay; format: functional
Acinetobacter baumannii [17] = experiment: Antibiotic adjuvant activity against Acinetobacter baumannii ATCC 17978 assessed as fold increase in MIC incubated for 18 hrs in presence of rifampicin and CAMHB Mg2+ media by two fold broth microdilution checkerboard assay; format: functional
Enterococcus faecium [18] = experiment: Antibiotic adjuvant activity against Enterococcus faecium 128149 assessed as inhibition of bacterial growth incubated for 18 hrs in presence of rifampicin by two fold broth microdilution checkerboard assay; format: functional
Escherichia coli [19] = experiment: Antibiotic adjuvant activity against multi-drug resistant Escherichia coli clinical isolate EC94474 assessed as fold potentiation incubated for 18 hrs in presence of doxycycline by two fold broth microdilution checkerboard assay; format: functional
Escherichia coli [20] = experiment: Antibiotic adjuvant activity against Escherichia coli ATCC 25922 at 8 to 11 ug/ml incubated for 18 hrs in presence of rifampicin and 25 % FBS media by two fold broth microdilution checkerboard assay; format: functional, organism-based; conditions: dose 8-11 µg/ml
Escherichia coli [21] = experiment: Antibiotic adjuvant activity against Escherichia coli ATCC 25922 assessed as fold potentiation incubated for 18 hrs in presence of Rifampicin by two fold broth microdilution checkerboard assay; format: functional
Pseudomonas aeruginosa [22] = experiment: Antibiotic adjuvant activity against multi-drug resistant Pseudomonas aeruginosa clinical isolate PA259 assessed as minocycline MIC incubated for 18 hrs in presence of minocycline by two fold broth microdilution checkerboard assay; format: functional
Acinetobacter baumannii [23] = experiment: Antibacterial activity against multi-drug resistant Acinetobacter baumannii clinical isolate LAC-4 assessed as inhibition of bacterial growth incubated for 18 hrs by two fold broth microdilution assay; format: functional
Pseudomonas aeruginosa [24] = experiment: Antibiotic adjuvant activity against multi-drug resistant Pseudomonas aeruginosa clinical isolate PA259 assessed as fractional inhibitory concentration index incubated for 18 hrs in presence of Rifampicin by two fold broth microdilution checkerboard assay; format: functional
Escherichia coli [25] = experiment: Antibiotic adjuvant activity against multi-drug resistant Escherichia coli clinical isolate EC94474 assessed as doxycycline MIC incubated for 18 hrs in presence of doxycycline by two fold broth microdilution checkerboard assay; format: functional
Escherichia coli [26] = experiment: Antibiotic adjuvant activity against Escherichia coli ATCC 25922 assessed as fold potentiation incubated for 18 hrs in presence of novobiocin by two fold broth microdilution checkerboard assay; format: functional
Pseudomonas aeruginosa [27] = experiment: Antibiotic adjuvant activity against Pseudomonas aeruginosa PAO1 assessed as minocycline MIC incubated for 18 hrs in presence of minocycline by two fold broth microdilution checkerboard assay; format: functional
Escherichia coli [28] = experiment: Antibiotic adjuvant activity against Escherichia coli ATCC 25922 assessed as rifampicin MIC incubated for 18 hrs in presence of Rifampicin by two fold broth microdilution checkerboard assay; format: functional
Acinetobacter baumannii [29] = experiment: Antibacterial activity against multi-drug resistant Acinetobacter baumannii clinical isolate AB031 assessed as inhibition of bacterial growth incubated for 18 hrs by two fold broth microdilution assay; format: functional

Cl.NC[C@H]1O[C@H](O[C@H]2[C@H](OCc3ccccc3)[C@@H](O[C@H]3O[C@H](COCc4ccccc4)[C@@H](OCc4ccccc4)[C@H](N)[C@H]3OCc3ccccc3)[C@H](N)C[C@@H]2N)[C@H](N)C[C@@H]1OCc1ccccc1
MIC (Pseudomonas aeruginosa [1]): 8 µg/mL
fractional inhibitory concentration index (FICI) (Pseudomonas aeruginosa [2]): 1.063
fold change (FC) (Pseudomonas aeruginosa [3]): 2
MIC (Escherichia coli [4]): 0.125 µg/mL
fractional inhibitory concentration index (FICI) (Pseudomonas aeruginosa [5]): 0.126
MIC (Enterococcus faecium [6]): 8 µg/mL
MIC (Pseudomonas aeruginosa [7]): 8 µg/mL
fractional inhibitory concentration index (FICI) (Pseudomonas aeruginosa [8]): 1.063
MIC (Pseudomonas aeruginosa [9]): 64 µg/mL
fold change (FC) (Enterococcus faecium [10]): 1
MIC (Pseudomonas aeruginosa [11]): 64 µg/mL
fold change (FC) (Pseudomonas aeruginosa [12]): 1
fold change (FC) (Pseudomonas aeruginosa [13]): 1
MIC (Pseudomonas aeruginosa [14]): 16 µg/mL
MIC (Pseudomonas aeruginosa [15]): 8 µg/mL
fold change (FC) (Pseudomonas aeruginosa [16]): 1
fold change (FC) (Acinetobacter baumannii [17]): >=2
MIC (Enterococcus faecium [18]): 8 µg/mL
fold change (FC) (Escherichia coli [19]): 8
Activity (Escherichia coli [20]): inactive
fold change (FC) (Escherichia coli [21]): 8
MIC (Pseudomonas aeruginosa [22]): 128 µg/mL
MIC (Acinetobacter baumannii [23]): 16 µg/mL
fractional inhibitory concentration index (FICI) (Pseudomonas aeruginosa [24]): 1.063
MIC (Escherichia coli [25]): 8 µg/mL
fold change (FC) (Escherichia coli [26]): 2048
MIC (Pseudomonas aeruginosa [27]): 0.5 µg/mL
MIC (Escherichia coli [28]): 0.008 µg/mL
MIC (Acinetobacter baumannii [29]): 32 µg/mL
